Assay results published in patent US20040167226A1, “Methods for the treatment of pain and traumatic injury using benzamides and compositions containing the same” (priority 2002, published 2004).

Tests used:
[1] = PK parameter estimates, 30 mg/kg po in 1% methyl cellulose; type: in vivo, rats; conditions: rat, plasma, rats, 30 mg/kg po in 1% methyl cellulose, n = 3
From the text: The time course of plasma concentration of compound N is depicted in FIG. 1 as well.

[2] = test system: Taxol-induced mechanical allodynia; assay: Taxol-induced neuropathic pain rat model, 50% paw withdrawal threshold (up-down method); type: in vivo, Sprague-Dawley rats; conditions: rats, 50 mg/kg p.o. in 1% methylcellulose (positive control)
From the text: Sprague-Dawley male rats with 150-160 grams of body weight were used in the studies presented herein. Rats were trained in the enclosure one hour per day in the morning for a one week period prior to obtaining the baseline response. Whereas the mouse studies assessed percentage of response, the rat studies determined 50% of the paw withdrawal threshold, also called the up-down method as developed by Chung and colleagues. In order to obtain consistent data, naïve rats with paw withdrawal threshold no less than 4 grams were included for further studies. Taxol at a dose of 1 mg/kg (body weight) was administered daily to rats intraperitoneally. As observed in mice, the rats treated with Taxol daily developed stable mechanical allodynia on day 9 and thereafter. On day 13 and day 14 of Taxol induction, the rats pain behavior in term of 50% of paw withdrawal threshold was measured. Only those rats with paw withdrawal threshold measurements no greater than 7 grams for two consecutive days were included for drug testing. Generally speaking, the mechanical allodynia in Taxol treated rats fell in the range of 1-4 gram of paw withdrawal threshold.
1 ml per kg of body weight of either 50 mg/ml or 20 mg/ml of Compound A was administered to rats via oral gavage feeding (p.o.), to yield a dose of either 50 mg/Kg (body weight) or 20 mg/Kg (body weight). The same corresponding volume of 1% methylcellulose was used as vehicle control. 34 male Sprague-Dawely rats were employed for the study. The baseline paw withdrawal threshold (grams of force applied to the plantar area of the right hind paw) and neuropathic pain induction with daily intraperitoneal administration of 1 mg/kg (body weight) was performed as indicated in the previous section. The Taxol treatment was continued for 15 days until the pain threshold remained relatively stable. Animals with baseline greater than 4 grams and with threshold […] post induction were included in the drug testing. 27 rats met the criteria for the next step studies and were randomly assigned into four groups. Group 1 consisting of 7 rats was given 1% methylcellulose as vehicle control group, 1 ml of vehicle per kilograms of body weight was administered to animal via p.o.; group 2 with 6 animals was dosed at 20 mg/kg (body weight) of Compound A via oral gavage feeding (p.o.); group 3 with 7 rats was dosed at 50 mg/kg of Compound A, and the fourth group with 7 rats received Gabapentine at 50 mg/kg via p.o. in the same vehicle as a positive control group. Those rats were habituated in the enclosure and 50% of paw withdrawal thresholds (grams of force) were measured using a set of von Frey filaments, as described in the previous section, at time points of 1, 2, 3, 6, and 24 hours postdosing in a blinded fashion. The tester had no knowledge of which animals received drug or vehicle. It was noted that rats tested were very sleepy in the late afternoon (for 6 hour postdosing measurement), thus the data would not be reliable for 6-hour postdosing time points. […] After finishing the 24 hour postdosing measurement, the paw withdrawal threshold of each animal was calculated and data was analyzed.

Work on CC(=O)Nc1cccc(C(=O)NC(C)(C)C)c1 [Compound D, N-tert-butyl-3-acetamidobenzamide] yielded a melting point of 194 to 195 °C.
For CC(C)(C)NC(=O)c1cccc([N+](=O)[O-])c1 [Compound G, N-tert-butyl-3-nitrobenzamide], the melting point was 123 to 125 °C.
CC(C)(C)NC(=O)c1ccc(N)cc1 [Compound N, N-tert-butyl-4-aminobenzamide] showed an AUC(0-inf) [1] of 1030 µg·h/mL, a Cmax [1] of 5400 ng/mL and a Tmax [1] of 0.5 h. It also gave a half-life ([1]; read-out: Elim.t1/2 (converted)) of 355 h and a melting point of 125 to 127 °C.
In the case of NCC1(CC(=O)O)CCCCC1 [Gabapentine, reference compound], the “time of peak analgesic effect postdosing” value [2] is reported as 3 to 6 h.
